Test results taken from patent US12577240B2, “Antiviral heteroaryl ketone derivatives” (Pfizer Inc., priority 2020, dated 2026).

Legend:
[1] = molecular target: T1, full length SARS-CoV-2 3CL protease (Severe acute respiratory syndrome coronavirus 2, UniProt P0DTD1); assay: SARS-CoV-2 Coronavirus 3C Protease FRET Assay; type: biochemical; settings: 15 nM enzyme, 25 μM peptide substrate, 60 minutes at 23° C., Morrison equation fit; read-out: FRET Assay Geometric Mean Ki
T1 construct: measures the activity of full length SARS-CoV-2 3CL protease

[2] = tested on: SARS-CoV-2 (USA_WA1/2020) in VeroE6 cells enriched for hACE2 expression; assay: Antiviral Activity from SARS-CoV-2 Infection (cytopathic effect, Cell Titer-Glo cell viability); type: cell-based; settings: Severe acute respiratory syndrome coronavirus 2, Vero C1008, 72 h; VeroE6 cells enriched for hACE2, multiplicity of infection 0.002, 3-day incubation; alone or with 2 μM CP-100356 (table does not say which); read-out: Antiviral Assay Geometric Mean EC50

| SMILES | Ki [1] | EC50 [2] |
| --- | --- | --- |
| CC(C)[C@H](NS(C)(=O)=O)C(=O)N1C[C@H]2[C@@H]([C@H]1C(=O)N[C@@H](C[C@@H]1CCNC1=O)C(=O)c1nc3c(C(F)(F)F)cccc3s1)C2(C)C [Example 4, (1R,2S,5S)-6,6-Dimethyl-3-[N-(methylsulfonyl)-L-valyl]-N-{(2S)-1-oxo-3-[(3S)-2-oxopyrrolidin-3-yl]-1-[4-(trifluoromethyl)-1,3-benzothiazol-2-yl]propan-2-yl}-3-azabicyclo[3.1.0]hexane-2-carboxamide] | 7.74 nM | – |
| CC(C)C(=O)N[C@H](C(=O)N1C[C@H]2[C@@H]([C@H]1C(=O)N[C@@H](C[C@@H]1CCNC1=O)C(=O)c1nc3ccccc3s1)C2(C)C)C(C)(C)C [Example 14, (1R,2S,5S)-N-{(2S)-1-(1,3-benzothiazol-2-yl)-1-oxo-3-[(3S)-2-oxopyrrolidin-3-yl]propan-2-yl}-6,6-dimethyl-3-[3-methyl-N-(2-methylpropanoyl)-L-valyl]-3-azabicyclo[3.1.0]hexane-2-carboxamide] | 6.02 nM | – |
| CC(C)[C@H](NS(=O)(=O)C(C)(C)C)C(=O)N1C[C@H]2[C@@H]([C@H]1C(=O)N[C@@H](C[C@@H]1CCNC1=O)C(=O)c1nc3ccccc3s1)C2(C)C [Example 12, (1R,2S,5S)-N-{(2S)-1-(1,3-benzothiazol-2-yl)-1-oxo-3-[(3S)-2-oxopyrrolidin-3-yl]propan-2-yl}-3-[N-(tert-butylsulfonyl)-L-valyl]-6,6-dimethyl-3-azabicyclo[3.1.0]hexane-2-carboxamide] | 34.2 nM | – |
| CC(=O)N[C@H](C(=O)N1C[C@H]2[C@@H]([C@H]1C(=O)N[C@@H](C[C@@H]1CCNC1=O)C(=O)c1nc3ccccc3s1)C2(C)C)C(C)(C)C [Example 19, (1R,2S,5S)-3-(N-acetyl-3-methyl-L-valyl)-N-{(2S)-1-(1,3-benzothiazol-2-yl)-1-oxo-3-[(3S)-2-oxopyrrolidin-3-yl]propan-2-yl}-6,6-dimethyl-3-azabicyclo[3.1.0]hexane-2-carboxamide] | 9.77 nM | 1330 nM |
| CC(C)[C@H](NS(C)(=O)=O)C(=O)N1CC2(CC2)C[C@H]1C(=O)N[C@@H](C[C@@H]1CCNC1=O)C(=O)c1nc2ccccc2s1 [Example 1, (6S)—N-{(2S)-1-(1,3-Benzothiazol-2-yl)-1-oxo-3-[(3S)-2-oxopyrrolidin-3-yl]propan-2-yl}-5-{(2S)-3-methyl-2-[(methylsulfonyl)amino]butanoyl}-5-azaspiro[2.4]heptane-6-carboxamide] | 20.2 nM | 5680 nM |
| COc1cccc2[nH]c(C(=O)N3C[C@H]4[C@@H]([C@H]3C(=O)N[C@@H](C[C@@H]3CCNC3=O)C(=O)c3nc5ccccc5s3)C4(C)C)cc12 [Example 2, (1R,2S,5S)—N-{(2S)-1-(1,3-Benzothiazol-2-yl)-1-oxo-3-[(3S)-2-oxopyrrolidin-3-yl]propan-2-yl}-3-[(4-methoxy-1H-indol-2-yl)carbonyl]-6,6-dimethyl-3-azabicyclo[3.1.0]hexane-2-carboxamide] | 206 nM | – |
| CC(C)[C@H](NS(=O)(=O)C1CC1)C(=O)N1C[C@H]2[C@@H]([C@H]1C(=O)N[C@@H](C[C@@H]1CCNC1=O)C(=O)c1nc3ccccc3s1)C2(C)C [Example 10, (1R,2S,5S)-N-{(2S)-1-(1,3-benzothiazol-2-yl)-1-oxo-3-[(3S)-2-oxopyrrolidin-3-yl]propan-2-yl}-3-[N-(cyclopropylsulfonyl)-L-valyl]-6,6-dimethyl-3-azabicyclo[3.1.0]hexane-2-carboxamide] | 19.6 nM | – |
| CCC(=O)N[C@H](C(=O)N1C[C@H]2[C@@H]([C@H]1C(=O)N[C@@H](C[C@@H]1CCNC1=O)C(=O)c1nc3ccccc3s1)C2(C)C)C(C)(C)C [Example 15, (1R,2S,5S)-N-{(2S)-1-(1,3-benzothiazol-2-yl)-1-oxo-3-[(3S)-2-oxopyrrolidin-3-yl]propan-2-yl}-6,6-dimethyl-3-(3-methyl-N-propanoyl-L-valyl)-3-azabicyclo[3.1.0]hexane-2-carboxamide] | 6.14 nM | – |
| CC(C)(C)OC(=O)N[C@H](C(=O)N1C[C@H]2[C@@H]([C@H]1C(=O)N[C@@H](C[C@@H]1CCNC1=O)C(=O)c1nc3ccccc3s1)C2(C)C)C(C)(C)C [Example 6, tert-Butyl {(2S)-1-[(1R,2S,5S)-2-({(2S)-1-(1,3-benzothiazol-2-yl)-1-oxo-3-[(3S)-2-oxopyrrolidin-3-yl]propan-2-yl}carbamoyl)-6,6-dimethyl-3-azabicyclo[3.1.0]hexan-3-yl]-3,3-dimethyl-1-oxobutan-2-yl}carbamate] | 137 nM | 492 nM |
| CC1(C)[C@@H]2[C@@H](C(=O)N[C@@H](C[C@@H]3CCNC3=O)C(=O)c3nc4ccccc4s3)N(C(=O)[C@H]3CCCO3)C[C@@H]21 [Example 8, (1R,2S,5S)-N-{(2S)-1-(1,3-benzothiazol-2-yl)-1-oxo-3-[(3S)-2-oxopyrrolidin-3-yl]propan-2-yl}-6,6-dimethyl-3-[(2R)-tetrahydrofuran-2-ylcarbonyl]-3-azabicyclo[3.1.0]hexane-2-carboxamide] | 6330 nM | – |
| CC(C)(C)[C@H](NS(C)(=O)=O)C(=O)N1C[C@H]2[C@@H]([C@H]1C(=O)N[C@@H](C[C@@H]1CCNC1=O)C(=O)c1nc3ccccc3s1)C2(C)C [Example 18, (1R,2S,5S)-N-{(2S)-1-(1,3-benzothiazol-2-yl)-1-oxo-3-[(3S)-2-oxopyrrolidin-3-yl]propan-2-yl}-6,6-dimethyl-3-[3-methyl-N-(methylsulfonyl)-L-valyl]-3-azabicyclo[3.1.0]hexane-2-carboxamide] | 1.55 nM | 129 nM |
| CC(C)(C)C(=O)N[C@H](C(=O)N1C[C@H]2[C@@H]([C@H]1C(=O)N[C@@H](C[C@@H]1CCNC1=O)C(=O)c1nc3ccccc3s1)C2(C)C)C(C)(C)C [Example 17, (1R,2S,5S)-N-{(2S)-1-(1,3-benzothiazol-2-yl)-1-oxo-3-[(3S)-2-oxopyrrolidin-3-yl]propan-2-yl}-3-[N-(2,2-dimethylpropanoyl)-3-methyl-L-valyl]-6,6-dimethyl-3-azabicyclo[3.1.0]hexane-2-carboxamide] | 99.1 nM | 584 nM |
| CC1(C)C[C@@H](C(=O)N[C@@H](C[C@@H]2CCNC2=O)C(=O)c2nc3ccccc3s2)N(C(=O)[C@H]2CCCO2)C1 [Example 20, N-{(2S)-1-(1,3-benzothiazol-2-yl)-1-oxo-3-[(3S)-2-oxopyrrolidin-3-yl]propan-2-yl}-4,4-dimethyl-1-[(2R)-tetrahydrofuran-2-ylcarbonyl]-L-prolinamide] | > 10800 nM | – |
| CCS(=O)(=O)N[C@H](C(=O)N1C[C@H]2[C@@H]([C@H]1C(=O)N[C@@H](C[C@@H]1CCNC1=O)C(=O)c1nc3ccccc3s1)C2(C)C)C(C)C [Example 16, (1R,2S,5S)-N-{(2S)-1-(1,3-benzothiazol-2-yl)-1-oxo-3-[(3S)-2-oxopyrrolidin-3-yl]propan-2-yl}-3-[N-(ethylsulfonyl)-L-valyl]-6,6-dimethyl-3-azabicyclo[3.1.0]hexane-2-carboxamide] | 10.3 nM | – |
| O=C1NCC[C@H]1C[C@H](NC(=O)[C@@H]1CC2(CC2)CN1C(=O)[C@H]1CCCO1)C(=O)c1nc2ccccc2s1 [Example 9, (6S)-N-{(2S)-1-(1,3-benzothiazol-2-yl)-1-oxo-3-[(3S)-2-oxopyrrolidin-3-yl]propan-2-yl}-5-[(2R)-tetrahydrofuran-2-ylcarbonyl]-5-azaspiro[2.4]heptane-6-carboxamide] | > 10000 nM | – |
| CC(C)(C)[C@H](NS(=O)(=O)C(C)(C)C)C(=O)N1C[C@H]2[C@@H]([C@H]1C(=O)N[C@@H](C[C@@H]1CCNC1=O)C(=O)c1nc3ccccc3s1)C2(C)C [Example 11, (1R,2S,5S)-N-{(2S)-1-(1,3-benzothiazol-2-yl)-1-oxo-3-[(3S)-2-oxopyrrolidin-3-yl]propan-2-yl}-3-[N-(tert-butylsulfonyl)-3-methyl-L-valyl]-6,6-dimethyl-3-azabicyclo[3.1.0]hexane-2-carboxamide] | 13.7 nM | 155 nM |
